Test results published in ChEMBL document CHEMBL1201862, “PubChem BioAssay data set” (2004).
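Assay format: 96-well plates, 48-hour exposure. The concentration for 50% growth inhibition is given as GI50.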 Activity calls are given as the source filed them. Rule as the data show it: active = GI50 up to about 1.1 µM and inactive = higher.

How the values were obtained:
Assay in all cases: growth of human tumour cells (NCI), 48 h
[1] = system: ACHN
[2] = system: DU-145
[3] = system: EKVX
[4] = system: HCT-15
[5] = system: HOP-62
[6] = system: Hs-578T
[7] = system: IGROV-1
[8] = system: MDA-MB-435
[9] = system: NCI-H226
[10] = system: NCI/ADR-RES
[11] = system: RPMI-8226
[12] = system: RXF 393
[13] = system: SF-295
[14] = system: SF-539
[15] = system: SK-MEL-5
[16] = system: SNB-19
[17] = system: SNB-75
[18] = system: UACC-62

Measured: GI50

COc1cc2c(NCCN(C)C)nc3c4cc5c(cc4ccc3c2cc1OC)OCO5
inactive: [2] 3.96 µM | [3] 4.09 µM | [5] 3.54 µM | [6] 5.21 µM | [7] 2.8 µM | [8] 3.5 µM | [9] 3.7 µM | [10] 4.16 µM | [11] 2.56 µM | [12] 3.16 µM | [13] 2.58 µM | [14] 4.06 µM | [15] 2.84 µM | [16] 3.56 µM | [17] 2.18 µM | [18] 4.49 µM
active: [1] 0.745 µM
2.94 µM: [4]

Cc1ccc(/C=C2\NC(=S)NC2=O)cc1
> 100 µM: [4]
inactive: [2] > 100 µM | [3] 62.8 µM | [5] > 100 µM | [6] > 100 µM | [7] > 100 µM | [8] > 100 µM | [9] > 100 µM | [10] > 100 µM | [11] > 100 µM | [12] > 100 µM | [13] > 100 µM | [14] > 100 µM | [15] > 100 µM | [16] > 100 µM | [17] > 100 µM | [18] > 100 µM

O=c1c2cc([N+](=O)[O-])ccc2n2n1CCCC2
> 100 µM: [4]
inactive: [1] > 100 µM | [2] > 100 µM | [3] > 100 µM | [5] > 100 µM | [6] > 100 µM | [7] > 100 µM | [8] > 100 µM | [9] > 100 µM | [10] > 100 µM | [11] > 100 µM | [12] > 100 µM | [13] > 100 µM | [14] > 100 µM | [15] > 100 µM | [16] > 100 µM | [17] > 100 µM | [18] > 100 µM

CCC/C(C)=N/NC(=S)SC.CCC/C(C)=N/NC(=S)SC.[Zn+2]
inactive: [1] 9.08 µM | [2] 12 µM | [3] 15 µM | [5] 9.75 µM | [6] 15.7 µM | [7] 2.56 µM | [8] 11.4 µM | [9] 12.6 µM | [10] 16.7 µM | [11] 1.98 µM | [12] 17.1 µM | [13] 3.15 µM | [14] 13.7 µM | [15] 11.2 µM | [16] 16.2 µM | [17] 18.7 µM | [18] 10.9 µM
2.24 µM: [4]

Cc1c2ccccc2c(C)n2c1nc1ccccc12
4.54 µM: [4]
inactive: [1] 4.06 µM | [2] 18.5 µM | [3] 14 µM | [5] 10 µM | [6] 20.2 µM | [7] 11.6 µM | [8] 6.1 µM | [9] 11.6 µM | [10] 8.57 µM | [11] 7.16 µM | [12] 9.44 µM | [13] 4.93 µM | [14] 4.56 µM | [15] 4.44 µM | [16] 9.71 µM | [17] 12.5 µM | [18] 10.2 µM

CC(C)(C)OC(=O)NC(CSCc1ccc(C(=O)c2ccccc2)cc1)C(=O)O (stereo unspecified)
inactive: [1] > 100 µM | [2] > 100 µM | [3] > 100 µM | [5] > 100 µM | [6] 34.9 µM | [7] > 100 µM | [8] > 100 µM | [9] > 100 µM | [10] > 100 µM | [11] 61.5 µM | [12] > 100 µM | [13] > 100 µM | [14] > 100 µM | [15] > 100 µM | [16] > 100 µM | [17] > 100 µM
> 100 µM: [4]

BrC1(c2ccccc2)C[n+]2c(-c3ccccc3)cc(-c3ccccc3)cc2-c2ccccc21 (stereo unspecified)
2.9 µM: [4]
active: [2] 0.931 µM | [3] 0.457 µM | [5] 0.611 µM | [6] 0.231 µM | [7] 0.289 µM | [8] 0.205 µM | [9] 0.659 µM | [11] 0.127 µM | [12] 0.183 µM | [13] 1.03 µM | [14] 0.764 µM | [15] 0.197 µM | [16] 0.551 µM | [17] 0.236 µM
inactive: [1] 1.42 µM | [10] 17.9 µM

Nc1ccc(-c2nc3cc(F)ccc3s2)cc1CO
inactive: [1] 25.3 µM | [2] > 78.9 µM | [3] 17.8 µM | [5] 17.5 µM | [6] 34.4 µM | [8] > 100 µM | [10] 53.6 µM | [11] > 100 µM | [12] 15.5 µM | [13] 14.4 µM | [14] 20.1 µM | [15] > 96.8 µM | [16] 27.1 µM | [17] 19.2 µM | [18] 19.4 µM
active: [7] < 0.01 µM | [9] 0.0219 µM
41 µM: [4]

Cc1c(-c2ccccc2)c(C#N)c2nnn(-c3ccc(Cl)cc3)c(=O)n12
inactive: [1] 4.26 µM | [2] 38.5 µM | [3] 50.9 µM | [5] 7.14 µM | [6] 71.4 µM | [7] 32.7 µM | [8] 31 µM | [9] 66.7 µM | [10] 17.6 µM | [11] 23.5 µM | [12] 28.2 µM | [13] 7.06 µM | [14] 20.7 µM | [15] 1.14 µM | [16] > 100 µM | [17] 30.9 µM
active: [18] 0.869 µM
10.1 µM: [4]

CCOC1CN=C(Nc2cccc3ccccc23)S1 (stereo unspecified)
inactive: [1] > 10 µM | [2] > 10 µM | [3] > 10 µM | [5] > 10 µM | [6] > 10 µM | [7] > 10 µM | [8] > 10 µM | [9] > 10 µM | [10] > 10 µM | [11] > 10 µM | [12] > 10 µM | [13] > 10 µM | [14] > 10 µM | [15] > 10 µM | [16] > 10 µM | [17] > 10 µM | [18] > 10 µM
> 10 µM: [4]

COc1ccc(C2=C(N)c3ncccc3C2=O)cc1
> 100 µM: [4]
inactive: [1] > 10 µM | [2] > 100 µM | [3] 45 µM | [5] > 100 µM | [6] 18.9 µM | [7] > 100 µM | [8] > 100 µM | [9] > 100 µM | [10] > 100 µM | [11] > 100 µM | [12] 24.7 µM | [13] > 100 µM | [14] > 100 µM | [16] > 100 µM | [17] > 100 µM | [18] 60.8 µM

O=C(O)c1cc2cc(c1)/N=C/c1ccccc1OCc1cccc(n1)COc1ccccc1/C=N/2
inactive: [1] 23.2 µM | [2] > 25 µM | [3] > 25 µM | [5] > 25 µM | [6] 4.94 µM | [7] 20.4 µM | [8] 3.78 µM | [9] 10.9 µM | [10] 5.93 µM | [11] 7.41 µM | [12] > 25 µM | [13] 6.24 µM | [14] 8.17 µM | [16] 17.3 µM | [17] > 25 µM | [18] 8.45 µM
8.45 µM: [4]
